# Results as given in ChEMBL document CHEMBL1127711, “Preparation of a novel series of phosphonate norstatine renin inhibitors” (Bioorg Med Chem Lett, 1994).
# Target: T1, Renin (Homo sapiens, UniProt P00797)
# T1 sequence (P00797 whole entry): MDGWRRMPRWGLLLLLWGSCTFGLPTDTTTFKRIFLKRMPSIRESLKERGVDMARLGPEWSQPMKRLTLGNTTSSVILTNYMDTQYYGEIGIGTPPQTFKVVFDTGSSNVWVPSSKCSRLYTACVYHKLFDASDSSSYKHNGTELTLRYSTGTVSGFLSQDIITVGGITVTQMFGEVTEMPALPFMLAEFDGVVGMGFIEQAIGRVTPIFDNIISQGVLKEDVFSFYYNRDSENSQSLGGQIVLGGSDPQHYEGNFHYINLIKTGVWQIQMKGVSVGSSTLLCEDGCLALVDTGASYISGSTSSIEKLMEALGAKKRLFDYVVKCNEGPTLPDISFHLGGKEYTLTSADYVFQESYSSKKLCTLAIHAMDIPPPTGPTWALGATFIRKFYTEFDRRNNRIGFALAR
# Assay: Compound was tested for the inhibition of human plasma renin(Hu Renin)
# Type: cell-free
row,Structure (SMILES),IC50 [nM]
1,COP(=O)(OC)C(O)[C@H](CC1CCCCC1)NC(=O)[C@H](CCc1cnc[nH]1)NC(=O)[C@H](Cc1ccccc1)NC(=O)N1CCOCC1 (some centres not stated),190
2,CSC[C@H](NC(=O)[C@H](Cc1ccccc1)NC(=O)N1CCOCC1)C(=O)N[C@@H](CC1CCCCC1)C(O)P(=O)(OC(C)C)OC(C)C (some centres not stated),1400
3,CSC[C@H](NC(=O)[C@H](Cc1ccccc1)NC(=O)N1CCOCC1)C(=O)N[C@@H](CC1CCCCC1)C(O)P(=O)(OCc1ccccc1)OCc1ccccc1 (some centres not stated),190

# These reach a lower IC50. Values come first.
row,IC50 [nM],Structure (SMILES)
1,60,CCCOP(=O)(OCCC)C(O)[C@H](CC1CCCCC1)NC(=O)[C@H](CSC)NC(=O)[C@H](Cc1ccccc1)NC(=O)N1CCOCC1 (some centres not stated)
2,32,CCCC[C@H](NC(=O)[C@H](Cc1ccccc1)NC(=O)N1CCOCC1)C(=O)N[C@@H](CC1CCCCC1)C(O)P(=O)(OC)OC (some centres not stated)
3,25,CCOP(=O)(OCC)C(O)[C@H](CC1CCCCC1)NC(=O)[C@H](CSC)NC(=O)[C@H](Cc1ccccc1)NC(=O)N1CCOCC1 (some centres not stated)
4,5.8,COP(=O)(OC)C(O)[C@H](CC1CCCCC1)NC(=O)[C@H](CSC)NC(=O)[C@H](Cc1ccccc1)NC(=O)N1CCOCC1 (some centres not stated)
